# Reference: patent US11324798B2, “Materials and methods for treatment of inflammation” (CYTOGEL PHARMA, LLC, priority 2010, dated 2022)
# Tested on: mu opiate receptor
# Assay: Binding to the mu opiate receptor
substance,measurement,value
H-Tyr-Pro-Trp-Phe-NH2 [SEQ ID NO:1],Potency for the mu opiate receptor,very potent
